# Laboratory results reported in patent publication US20110239327A1, “Nematicidal Effects of Cysteine Proteinases and Methods of Use Thereof to Treat Nematode Infestation” (priority 2007, published 2011).
# Entries after “also recorded” stand apart in the source; their conditions may differ.
# Legend:
# Steinernema feltiae = test: In vitro effect on the beneficial nematode Steinernema feltiae; type: cell-based
# Method: Eggs of M. incognita race 1 from North Carolina State University, USA were collected from tomato-infected roots grown in a glasshouse at 23° C. in a 16:8 h light-dark regime. Eggs were extracted using 1% hypochlorite (NaClO) solution (Hussey and Barker, 1973) or by picking egg masses from tomato-infected roots. Juveniles (J2) were hatched from the eggs and egg masses in water. Heterodera glycines eggs were obtained from soil samples stored in Rothamsted-Research. Second stage juveniles (J2) were hatched from the eggs in water after 10 days. Pratylenchus penetrans were a gift from Dr. Deeren Anne-Marie from the Institute for Agricultural and Fisheries Research, Merelbeke, Belgium. The beneficial nematodes Steinernema feltiae and Heterorhabditis megidis were a gift from Dr. Paul Williams from Becker Underwood.
# Control wells were set up which contained J2s and distilled water with 16 mM L-cysteine. Each enzyme concentration and the controls were set up in duplicate (i.e. n=2). The actual number of active J2s per well was counted with the aid of an Olympus inverted microscope, prior to the addition of the enzymes, and then the J2s were incubated in the dark at room temperature for 2 hs, 16 hs, 24 hs or 40 hr. The number of live and dead J2s per well was counted after each enzyme incubation. […]
# Meloidogyne spp. J2s = test: In vitro mobility of Meloidogyne spp. J2s exposed to plant cysteine proteinases; type: cell-based, M. incognita or M. javanica; conditions: 25 μM active enzyme
# Method: Eggs of M. incognita race 1 from North Carolina State University, USA, and M. javanica from Portugal were collected from the roots of infected tomato plants grown in a glasshouse at 23° C. in a 16:8 h light-dark regime. Eggs were extracted using 1% hypochlorite (NaClO) solution (Hussey and Barker, 1973) or by picking egg masses from the infected roots. M. incognita and M. javanica were both used in the experiments and produced similar results. Juveniles (J2) were hatched from the eggs and egg masses in water. Globodera rostochiensis cysts were washed extensively in distilled water. Hatched J2s were obtained by incubating cysts in distilled water for 4 days followed by exposure to potato root diffusate (PRD).
# Approximately 1000 J2s (second juvenile stage) of M. incognita or M. javanica were incubated per well of a 48-well plate with the following active enzyme concentrations (determined by E-64 titration) of papain dissolved in distilled water containing 16 mM L-cysteine (to activate the cysteine proteinase): 1.5 μM, 3 μM, 6.25 μM, 12.5 μM, 25 μM, 50 μM, 75 μM and 100 μM. […] The number of active J2s per well was counted prior to the addition of papain, and then the J2s were incubated in the dark at room temperature for 3 h. The number of mobile J2s per well was counted after 60, 120 and 180 mins. […]
substance,measurement,setting,value
stem bromelain,bromelain concentrations at which no effect was observed,Steinernema feltiae,below 280 uM
same,effect on S. feltiae movement,Steinernema feltiae; high concentrations of bromelain,affected S. feltiae movement slightly
same,proportion of active Meloidogyne spp. J2s relative to control,Meloidogyne spp. J2s,significant reduction; also recorded: Reductions in the proportion of active worms were evident
